Series [1] deals with T1, Replicase polyprotein 1ab (Severe acute respiratory syndrome coronavirus 2, UniProt P0DTD1). The series can be described thus: Inhibition of SARS-CoV-2 3CL protease expressed in Escherichia coli BL21(DE3) cells using DABCYL-KTSAVLQSGFRKM-EDANS as substrate preincubated for 30 mins followed by substrate addition and measured after 15 mins by FRET assay.
The nature of series [2]: Inhibition of MERS 3CL protease expressed in Escherichia coli BL21(DE3) cells using DABCYL-KTSAVLQSGFRKM-EDANS as substrate preincubated for 30 mins followed by substrate addition and measured after 30 mins by FRET assay. Also on record: species or system Middle East respiratory syndrome-related coronavirus.
Series [3] relates to BEAS-2B. The experiment in a line: Cytotoxicity against human BEAS-2B cells assessed as reduction in cell viability. In kind it is toxicity, cell-based.
Series [4] deals with SARS-CoV-2. The series can be described thus: microbe, parasite or virus in culture. Conditions: Severe acute respiratory syndrome coronavirus 2, […], Vero C1008.
For series [5], the system named is SARS-CoV-2. The series can be described thus: microbe, parasite or virus in culture. Conditions: Severe acute respiratory syndrome coronavirus 2, […], Vero C1008, 72 h.
In series [6] the test system is Middle East respiratory syndrome-related coronavirus. The series can be described thus: microbe, parasite or virus in culture. The conditions noted are these: Vero C1008, 96 h.
For series [7], the system named is Human coronavirus 229E. The series can be described thus: microbe, parasite or virus in culture. Conditions: BEAS-2B.
Series [8] has as its system SARS-CoV-2. Conditions: Severe acute respiratory syndrome coronavirus 2, […], Calu-3, 48 h.
The target of series [9] is T1, Replicase polyprotein 1ab. The experiment in a line: Covalent binding affinity to SARS-CoV-2 3CL protease expressed in Escherichia coli BL21(DE3) cells after 30 mins by FRET assay.
Series [10] deals with Replicase polyprotein 1ab (Severe acute respiratory syndrome coronavirus 2) (UniProt P0DTD1). The conditions noted are these: dose 40.0 µM, time 30.0 min.
Series [11] is described as follows: Selectivity index, ratio of CC50 for human BEAS2B cells to EC50 for antiviral activity against HCoV229E infected in BEAS-2B cells. Format: toxicity, cell-based. Conditions: read-out: Ratio CC50/EC50.

Some results are limits rather than exact numbers.

For `CO[C@H]1C[C@@H](C(=O)N[C@H](C=O)C[C@@H]2CCNC2=O)N(C(=O)[C@@H](NC(=O)OC(C)(C)C)C(C)C)C1`, the concentration for half-maximal inhibition (IC50) was 0.00024 µM in [1] and 0.007 nM in series [2]. For the same molecule, the cytotoxic concentration (CC50) in series [3] was found to be 3.6 µM. The concentration for a half-maximal effect (EC50) in series [4] was 23.6 µM; in [5], 8.7 µM; in series [6], 0.58 µM; in series [7] it was > 3.6 µM.
Consider `C[C@H](OC(C)(C)C)[C@H](NC(=O)OC(C)(C)C)C(=O)N1CCC[C@H]1C(=O)N[C@H](C=O)C[C@@H]1CCNC1=O`, for which the figures for the concentration for half-maximal inhibition (IC50) in [1] and in series [2] were 0.0053 µM and 0.022 nM, respectively. Further, the concentration for a half-maximal effect (EC50) in series [4] is 22.9 µM; in series [5], 1.86 µM.
The like results for `CC(C)[C@H](NC(=O)OC(C)(C)C)C(=O)N1C[C@@H](C)C[C@H]1C(=O)N[C@H](C=O)C[C@@H]1CCNC1=O` were, in that order, 0.00047 µM, 2.33 nM, 47.2 µM and 16.9 µM.
On to `CC(C)C[C@H](NC(=O)OCc1ccccc1)C(=O)N[C@@H](C[C@@H]1CCNC1=O)C(O)S(=O)(=O)O` (stereo not given in full), for which the CC50 in [3] is > 100 µM.
Regarding `CC(C)[C@H](NC(=O)OC(C)(C)C)C(=O)N1C[C@H](OC(C)(C)C)C[C@H]1C(=O)N[C@H](C=O)C[C@@H]1CCNC1=O`, the figures for the IC50 in series [1] and in series [2] were 0.0025 µM and 26 nM, respectively. Besides, in series [3], the cytotoxic concentration (CC50) worked out at 48.2 µM. The 50% effective concentration (EC50) in [4] is 33.4 µM; in [5] it was 3.4 µM; in series [6] it was 33.6 µM; in series [7], > 48.2 µM.
Consider `CC(C)[C@H](NC(=O)OC(C)(C)C)C(=O)N1C[C@@H]2CCC[C@@H]2[C@H]1C(=O)N[C@H](C=O)C[C@@H]1CCNC1=O`, for which the half-maximal inhibitory concentration (IC50) in series [1] turned out to be 0.005 µM; in [2], 143 nM. The 50% cytotoxic concentration (CC50) in series [3] stood at 28.4 µM. Also, the EC50 in [8] amounted to 0.449 µM; in series [4] it was 5.3 µM; in [5], 0.21 µM; in series [7], 0.24 µM. The Ki in series [9] was found to be 0.0032 µM. Besides, in series [10], the ΔTm was found to be 4 °C.
On to `CC(C)C[C@H](NC(=O)[C@@H](NC(=O)OC(C)(C)C)C(C)C)C(=O)N[C@H](C=O)C[C@@H]1CCNC1=O`, for which the IC50 in series [1] amounted to 0.0007 µM; in series [2] it was 0.02 nM. Further, the CC50 in series [3] came out at 70.5 µM. For the same molecule, the selectivity ratio in series [11] is > 30.1. The half-maximal effective concentration (EC50) in [4] came out at 40.1 µM; in series [5], 3.6 µM; in series [6], 1.58 µM; in series [7], 2.3 µM.
Consider `CC(C)[C@H](NC(=O)OC(C)(C)C)C(=O)N1CCC[C@H]1C(=O)N[C@H](C=O)C[C@@H]1CCNC1=O`, for which the results for the IC50 in [1] and in series [2] were 0.00623 µM and 0.02 nM, respectively. Moreover, the CC50 in [3] amounted to 17.9 µM. Further, the concentration for a half-maximal effect (EC50) in [4] was 22.5 µM; in series [5], 16 µM; in series [6], 4.56 µM; in series [7], > 17.9 µM.
In turn, `CC(C)[C@H](NC(=O)OC(C)(C)C)C(=O)N1CCCC[C@H]1C(=O)N[C@H](C=O)C[C@@H]1CCNC1=O` returned a 50% inhibitory concentration (IC50) in series [1] of 3.35 µM. Also, the values for the concentration for a half-maximal effect (EC50) in series [4] and in series [5] were > 100 µM and 5.83 µM, respectively.

The values are drawn from ChEMBL document CHEMBL5360575, “Broad-spectrum coronavirus 3C-like protease peptidomimetic inhibitors effectively block SARS-CoV-2 replication in cells: Design, synthesis, biological evaluation, and X-ray structure determination” (Eur J Med Chem, 2023).
